Test results taken from article PMC5736767, “A Comparison of Drug Transport in Pulmonary Absorption Models: Isolated Perfused rat Lungs, Respiratory Epithelial Cell Lines and Primary Cell Culture” (Pharmaceutical Research, 2017).
Read-outs that look alike come from different tables or passages of the source.

Assays:
[1] = tested on: isolated perfused rat lungs; assay: in vitro
Procedure: (§1) Eight-week old male Wistar rats were obtained from Harlan UK Ltd. (Oxon, Oxfordshire). They were fed with a SDS RM1(E) maintenance diet (Special Diets Services Ltd., Essex). They were maintained at 20–21°C and 45–60% humidity with a 12 h light/dark cycle. All procedures performed on these animals were in accordance with regulations and established guidelines and were reviewed and approved by an Institutional Animal Care and Use Committee or through an ethical review process.
(§2) Rats were sacrificed with a lethal injection of pentobarbital (130 mg/kg body weight). As soon as they were unconscious, rats were secured in a supine position on a board inclined at approximately 45°. A midline incision was made from the neck to the abdomen using a scalpel blade and the rat was exsanguinated by severing the main abdominal vessels. The trachea was exposed and carefully pierced through one wall with a 21 G needle. A 3 cm long cannula made of a polyethylene tubing (PolyE 240, Harvard Apparatus Ltd., Edenbridge, UK) mounted on a blunt 21 G needle was introduced into the trachea. This was securely tied with two suture threads (Silk black braid USP size 4.0, Harvard apparatus Ltd) and a 25 mm Dieffenbach’s bulldog artery clip (Scientific Laboratory Supplies Ltd., Nottingham, UK). The diaphragm was cut open, 0.5 mL of air was administered to the lungs to partly re-inflate them and the rib cage was laterally incised with scissors taking care not to damage the lung tissue.
(§3) After the thymus was removed, the heart was twisted slightly to expose the pulmonary artery and then stretched down using a Halstead’s artery clamp (Scientific Laboratory Supplies). An incision was made and the pulmonary artery was cannulated using a cannula similar to the tracheal one. This was secured with a micro aneurysm clip (Harvard apparatus Ltd). Lungs were perfused using a single pass constant flow rate of 8 mL/min. […] The pericardium was dissected free to allow free efflux of the perfusate and lungs were inflated manually with 1.5 mL air using a 10 mL syringe connected to the intratracheal cannula. As soon as the tissue blanched, the lungs were removed carefully from the chest cavity while maintaining the perfusion and a semi micro Rexaloy clamp (Fisher Scientific, Loughborough, UK) was used to suspend the lungs vertically above a funnel and beaker.
(§4) After isolation, the lungs were allowed to stabilize for 1–2 min. The syringe attached to the intratracheal cannula was then disconnected and 100 μL of the test solutions were instilled into the airways using a Hamilton microsyringe. Lungs were re-inflated with 1.5 mL of air and sampling was performed by collecting the effluent solution dripping from the left atrium at different time intervals for 90 min. Lung viability was assessed by visual inspection for any sign of oedema as well as by the profile of mannitol airway to perfusate transfer.
(§5) The cumulative percentage of drug transferred from the airways to the perfusate in 90 min was calculated as the fraction of the administered dose recovered in the perfusate. […] The apparent first-order absorption rate constant (KaIPL) was calculated as follows: KaIPL=ln2/t1/2abs
(§6) Absorption data were collected using 4 or 5 IPL preparations.

[2] = in vitro; settings: male, Wistar, rat, pH 7.4
Procedure: as §1, §2, §3, §4, §5, §6

[3] = Table I panel of test compounds; source not stated; cited from earlier work
[4] = tested on: rat lungs; settings: apparent first-order pulmonary absorption rate constant in rats in vivo, cited from earlier work
[5] = Absorptive (A to B) permeability in Calu-3 cell layers; settings: human
[6] = tested on: NHBE cell layers; assay: Absorptive (A to B) permeability in normal human bronchial epithelial (NHBE) cell layers; format: in vitro ADME
Procedure: (§7) NHBE were cultured in a cell culture flask using the BEGM bullet kit provided by the supplier until reaching 70–80% confluence. […] After 24 h, cells were cultured at an air interface. Cell layers were used for transport studies after 14 d in culture.

[7] = as above; format: in vitro ADME; settings: human, apical to basolateral, 10 μM, pH 7.4, 2 h, mean ± SD (n = 3, n = 18 for mannitol)
Procedure: as §7

[8] = Absorptive (A to B) permeability in 16HBE14o- cell layers; settings: human, pH 7.4
[9] = in vitro; settings: human, pH 7.4
[10] = tested on: 16HBE14o- cell layers; settings: pH 7.4
[11] = tested on: Calu-3 cell layers; assay: Absorptive (A to B) permeability in Calu-3 cell layers; settings: Calu-3, apical to basolateral, 10 μM, pH 7.4, 2 h; mean ± SEM (n = 6, n = 36 for mannitol)
[12] = apparent first-order absorption rate constant = ln2/t1/2 abs, intratracheal instillation 100 μL, mean ± SD
[13] = male, Wistar, rat, 90 min, pH 7.4
[14] = pH 7.4, Papp, Calu-3, apical to basolateral, 10 μM, pH 7.4, 2 h, mean ± SEM (n = 6, n = 36 for mannitol)

Molecule	Ka in vivo ([4]; ref [22])	% transferred to the perfusate in 90 min [1, 13] [%]	Papp at 2 h, 10 μM [7] [×10⁻⁶ cm/s]	KaIPL ([1]; male, Wistar, rat, pH 7.4) [min⁻¹]	half-life [2] [min]	Papp at 2 h, 10 μM [5, 14] [×10⁻⁶ cm/s]	Papp at 2 h, 10 μM [9] [×10⁻⁶ cm/s]	other results
COc1ccc(CC(C)NCC(O)c2ccc(O)c(NC=O)c2)cc1 (centres unmarked) [Formoterol]	0.19 ^(1) min^−1							KaIPL [1, 12]: 0.023 ± 0.002 min⁻¹; % transferred to the perfusate in 90 min ([1]; cumulative fraction of administered dose recovered in perfusate at 90 min, mean ± SD): 46 ± 7%; half-life ([2]; 100 μL): 30 ± 2 min; Log P [3]: 1.1; Papp at 2 h, 10 μM ([5]; pH 7.4): 6.4 ± 0.3 ×10⁻⁶ cm/s
CN(C)CCCN1c2ccccc2CCc2ccccc21 [Imipramine]	0.53 ^(1) min^−1	58 ± 9						KaIPL [1, 12]: 0.071 ± 0.021 min⁻¹
OC[C@@H](O)[C@@H](O)[C@H](O)[C@H](O)CO [Mannitol]		51 ± 4	1.6 ± 0.5	0.029 ± 0.005	25 ± 5	0.5 ± 0.1		Papp [6]: 1.6 ± 0.5 x 10^−6, cm s^−1; Ka in vivo ([4]; ref [24]): 0.011 ^(3) min^−1; Papp at 2 h, 10 μM [8]: 3.7 ± 0.5 ×10⁻⁶ cm/s; Papp at 2 h, 10 μM ([5]; pH 7.4, Papp, Calu-3, as stated in text): 0.48 ± 0.06 ×10⁻⁶ cm/s
COCCc1ccc(OCC(O)CNC(C)C)cc1 (centres unmarked) [Metoprolol]		65 ± 4	11.3 ± 0.7	0.260 ± 0.050	3 ± 1	10.3	24.5 ± 2.5	
CC(C)NCC(O)COc1cccc2ccccc12 (centres unmarked) [Propranolol]		47 ± 9	16.8 ± 3	0.098 ± 0.016		7 ± 0.4	17.3 ± 0.8	half-life ([2]; 100 μL): 7 ± 1 min
CC(C)(C)NCC(O)c1cc(O)cc(O)c1 (centres unmarked) [Terbutaline]	0.06 ^(1) min^−1	52 ± 12	13.8 ± 0.8	0.037 ± 0.006	19 ± 3	7.3 ± 0.4	19.3 ± 2	Log P [3]: 0.1
Dextran 10 K								Papp ([6]; apical to basolateral, 10 μM, pH 7.4, 2 h, mean ± SD (n = 3, n = 18 for mannitol)): 0.7 ± 0.1 10^−6 cm/s; KaIPL [1]: 0.017 ± 0.002 min⁻¹; t1/2 abs ([1]; rat): 41 ± 6 min; Papp [10]: 1 ± 0.1 ×10⁻⁶ cm/s; Ka in vivo ([4]; ref [23]): 0.00007 ^(2) min^−1; Papp [11]: 0.2 ± 0.0 10^−6 cm/s
